Measured values published in patent US4711952A, “Serum thymic factor peptide analogs and process for the preparation thereof” (SPOFA, spojene podniky pro zdravotnickouvyrobu, priority 1984, dated 1987).
Non-standard residues stand in square brackets, D forms with d. Residues, ends and D or L forms follow the SMILES beside them. No end group written: not given here. pGlu = O=C1CC[C@@H](C(=O)O)N1

test system: Flymphocytes; test: Recovery assay of Flymphocytes (in vitro); assay type: cell-based; conditions: positive for immunostimulation and negative for immunosuppression
Source text: As is evident from the general formula I in comparison with the above structure of the natural substance, the compounds of the present invention, besides optional shortening at the N-terminus, comprise a C-terminal augmentation predominantly by an additional amino-acid residue or residues bearing an amide moiety.

Point of comparison: “AKSQGGSNF-NH2 [D-Gln--E--PheNH2, Alanyl-lysyl-seryl-glutaminyl-glycyl-glycyl-seryl-asparaginyl-phenylalanine amide]”, “Recovery Assay of Flymbocytes differential count” value 16.09%. Against it:
- C[C@H](NC(=O)[C@@H]1CCC(=O)N1)C(=O)N[C@@H](CCCCN)C(=O)N[C@@H](CO)C(=O)N[C@@H](CCC(N)=O)C(=O)NCC(=O)NCC(=O)N[C@@H](CO)C(=O)N[C@@H](CC(N)=O)C(=O)NCC(N)=O ([pGlu]AKSQGGSNG-NH2) — lower, 6.31%
- C[C@H](NC(=O)[C@@H]1CCC(=O)N1)C(=O)N[C@@H](CCCCN)C(=O)N[C@@H](CO)C(=O)N[C@@H](CCC(N)=O)C(=O)NCC(=O)NCC(=O)N[C@@H](CO)C(=O)N[C@@H](CC(N)=O)C(=O)N[C@@H](Cc1ccccc1)C(N)=O [p-Glu--D-Gln--E--PheNH2, Pyroglutamyl-alanyl-lysyl-seryl-glutaminyl-glycyl-glycyl-seryl-asparaginyl-phenylalanine amide] ([pGlu]AKSQGGSNF-NH2) — lower, 7.54%
- NC(=O)CNC(=O)[C@H](CC(N)=O)NC(=O)[C@H](CO)NC(=O)CNC(=O)CNC(=O)[C@@H]1CCC(=O)N1 [p-Glu--E--GlyNH2, Pyroglutamyl-glycyl-glycyl-seryl-asparaginyl-glycine amide] ([pGlu]GGSNG-NH2) — lower, 6.35%
- NC(=O)C[C@H](NC(=O)[C@H](CO)NC(=O)CNC(=O)CNC(=O)[C@@H]1CCC(=O)N1)C(=O)N[C@@H](Cc1ccccc1)C(N)=O [p-Glu--E--PheNH2, Pyroglutamyl-glycyl-glycyl-seryl-asparaginyl-phenylalanine amide] ([pGlu]GGSNF-NH2) — lower, 2.89%
- AKSQGGSNG-NH2 [D-Gln--E--GlyNH2, Alanyl-lysyl-seryl-glutaminyl-glycyl-glycyl-seryl-asparaginyl-glycine amide] — lower, 12.75%
